We go through 9 compounds from ChEMBL document CHEMBL6127047, “Nitrogen-containing heterocyclic drug products approved by the FDA in 2023: Synthesis and biological activity” (Eur J Med Chem, 2024).

Series [1] addresses Receptor-type tyrosine-protein kinase FLT3 (Homo sapiens, UniProt P36888, ITD). Format: cell-based, MV4-11.
Series [2] addresses T1, Tyrosine-protein kinase BTK (Homo sapiens, UniProt Q06187).
Description: Inhibition of wild type BTK (unknown origin) stably transfected in HEK293 cells
Series [3] concerns the target T1, Tyrosine-protein kinase BTK. The source holds these as a separate data set.
Description: Inhibition of wild type BTK (unknown origin)
Series [4] can be described thus: clinical. To be noted: human, in vivo, po.
Description: Oral bioavailability in human
Series [5] is described as follows: clinical. The conditions noted are these: human.
Series [6] addresses T2, Neuromedin-K receptor (Homo sapiens, UniProt P29371).
T2 sequence (P29371 whole entry): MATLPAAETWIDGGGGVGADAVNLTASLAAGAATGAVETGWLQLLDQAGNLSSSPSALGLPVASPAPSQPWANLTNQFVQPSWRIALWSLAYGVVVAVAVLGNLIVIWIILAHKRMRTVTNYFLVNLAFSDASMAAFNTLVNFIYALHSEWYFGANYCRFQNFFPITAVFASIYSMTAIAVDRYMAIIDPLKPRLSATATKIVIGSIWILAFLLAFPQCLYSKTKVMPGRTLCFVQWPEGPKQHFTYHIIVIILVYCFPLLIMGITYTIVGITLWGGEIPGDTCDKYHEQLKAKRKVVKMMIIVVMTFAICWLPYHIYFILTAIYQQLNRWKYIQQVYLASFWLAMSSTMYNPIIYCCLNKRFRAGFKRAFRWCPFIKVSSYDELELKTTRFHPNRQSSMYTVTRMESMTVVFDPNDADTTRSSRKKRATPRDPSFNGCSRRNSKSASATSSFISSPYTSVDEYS
Description: Binding affinity to human recombinant NK3R assessed as inhibition constant

A short description of series [7]: clinical. The conditions noted are these: human, in vivo, po. This is another data set of the same source.
Series [8] in a line: clinical. The conditions noted are these: human. This is another data set of the same source.
Series [9] is described as follows: Cmax in human at 200 mg. In kind it is ADME.
Series [10] can be described thus: Apparent volume of distribution at steady state in human at 200 mg. To be noted: read-out: Vdss(app). Format: ADME.
Series [11] in a line: Plasma protein binding in human. In kind it is ADME, cell-free. The conditions noted are these: read-out: PPB.
The nature of series [12]: Cmax in human. In kind it is ADME.
Series [13] can be described thus: AUC in human. Format: ADME.
Series [14] deals with CYP3A4 (Homo sapiens, UniProt P08684). Kind of series: Inhibition of CYP3A4 (unknown origin) at 10 uM relative to control. Format: ADME.
Chain of CYP3A4 (P08684 whole entry): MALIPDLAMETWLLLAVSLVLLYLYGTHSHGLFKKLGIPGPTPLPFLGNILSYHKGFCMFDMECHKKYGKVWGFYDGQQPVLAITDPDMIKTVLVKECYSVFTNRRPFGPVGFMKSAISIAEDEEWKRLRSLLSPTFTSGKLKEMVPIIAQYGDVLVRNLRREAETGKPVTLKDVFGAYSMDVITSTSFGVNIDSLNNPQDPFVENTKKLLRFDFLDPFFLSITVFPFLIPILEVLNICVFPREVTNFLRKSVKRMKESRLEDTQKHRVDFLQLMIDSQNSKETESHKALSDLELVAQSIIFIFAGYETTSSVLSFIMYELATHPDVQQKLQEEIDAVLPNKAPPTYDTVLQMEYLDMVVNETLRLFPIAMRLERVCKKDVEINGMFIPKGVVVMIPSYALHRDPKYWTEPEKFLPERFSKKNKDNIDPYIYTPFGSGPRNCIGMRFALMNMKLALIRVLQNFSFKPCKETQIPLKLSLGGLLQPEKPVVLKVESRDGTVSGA
The nature of series [15]: in vivo. To be noted: mouse, iv, 3 mg/kg.

pIC50, pKi: −log10 of the molar value. Where a SMILES comes first, the peptide text is derived from it. [ ]: non-standard residue; d: D form. αMeP = C[C@@]1(C(=O)O)CCCN1

In general, pIC50 refers to −log10 of the IC50, conventionally taken in molar units. By bioavailability is commonly meant the share of a dose that reaches the circulation, judged against a reference dose that is usually intravenous. Low readings indicate poor availability, high ones good availability. As usually defined, the half-life is the time in which the quantity being followed falls by half. A high value points to slow loss. A word on the pKi: it is the negative decadic logarithm of the Ki, by convention in mol/L. High values mean a small Ki, low ones a large Ki. A word on the Cmax: it is the peak of the concentration-time curve. A word on the AUC: it is concentration integrated over time. A high value points to more exposure. Broadly, the inhibition is the relative decrease from the control value, in per cent.

T1 sequence (Q06187 whole entry): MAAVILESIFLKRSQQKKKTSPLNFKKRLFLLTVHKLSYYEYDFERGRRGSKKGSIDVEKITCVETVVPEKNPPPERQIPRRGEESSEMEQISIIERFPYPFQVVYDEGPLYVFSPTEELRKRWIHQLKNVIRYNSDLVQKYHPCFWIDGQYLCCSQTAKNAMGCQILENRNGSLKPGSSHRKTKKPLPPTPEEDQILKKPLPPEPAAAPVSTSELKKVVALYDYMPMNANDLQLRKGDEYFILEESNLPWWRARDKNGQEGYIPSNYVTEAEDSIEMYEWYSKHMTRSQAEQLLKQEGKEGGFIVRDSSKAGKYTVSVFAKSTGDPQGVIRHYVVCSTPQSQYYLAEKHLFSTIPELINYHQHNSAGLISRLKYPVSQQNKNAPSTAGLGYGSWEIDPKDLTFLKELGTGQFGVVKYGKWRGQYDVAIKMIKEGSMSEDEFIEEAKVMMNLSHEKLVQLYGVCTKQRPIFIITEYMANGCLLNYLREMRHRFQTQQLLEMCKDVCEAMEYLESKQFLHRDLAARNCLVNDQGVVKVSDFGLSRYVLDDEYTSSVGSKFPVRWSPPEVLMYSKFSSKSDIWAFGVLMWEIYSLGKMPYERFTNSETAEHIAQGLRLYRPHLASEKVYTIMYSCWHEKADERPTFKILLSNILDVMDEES
Chain of Receptor-type tyrosine-protein kinase FLT3 (P36888 whole entry, looked up, change not shown): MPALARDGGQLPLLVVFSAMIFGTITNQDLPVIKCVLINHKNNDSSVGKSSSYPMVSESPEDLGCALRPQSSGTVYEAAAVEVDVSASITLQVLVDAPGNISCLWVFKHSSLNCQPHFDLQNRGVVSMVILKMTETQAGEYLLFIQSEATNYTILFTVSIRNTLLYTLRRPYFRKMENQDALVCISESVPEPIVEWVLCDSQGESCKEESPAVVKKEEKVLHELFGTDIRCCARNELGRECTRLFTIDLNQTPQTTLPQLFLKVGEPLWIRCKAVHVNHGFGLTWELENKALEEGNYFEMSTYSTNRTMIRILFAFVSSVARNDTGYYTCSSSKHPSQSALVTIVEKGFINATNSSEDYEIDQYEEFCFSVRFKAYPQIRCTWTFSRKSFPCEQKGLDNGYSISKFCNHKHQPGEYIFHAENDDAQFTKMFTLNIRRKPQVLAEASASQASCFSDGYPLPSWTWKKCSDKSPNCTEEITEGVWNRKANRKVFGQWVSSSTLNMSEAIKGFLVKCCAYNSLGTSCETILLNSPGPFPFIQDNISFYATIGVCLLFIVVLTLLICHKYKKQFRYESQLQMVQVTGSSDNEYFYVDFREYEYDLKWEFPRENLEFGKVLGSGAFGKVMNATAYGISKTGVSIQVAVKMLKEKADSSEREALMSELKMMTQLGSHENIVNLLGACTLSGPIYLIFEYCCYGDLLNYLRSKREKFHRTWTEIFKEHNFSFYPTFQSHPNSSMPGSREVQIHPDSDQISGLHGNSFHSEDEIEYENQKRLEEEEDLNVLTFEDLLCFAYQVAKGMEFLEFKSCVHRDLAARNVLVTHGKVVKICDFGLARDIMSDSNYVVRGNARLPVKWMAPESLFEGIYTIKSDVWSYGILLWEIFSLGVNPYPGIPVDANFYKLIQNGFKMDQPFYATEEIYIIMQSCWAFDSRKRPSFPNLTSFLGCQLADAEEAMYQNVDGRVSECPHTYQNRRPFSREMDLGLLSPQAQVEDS

As to `CC(C)(C)c1cc(NC(=O)Nc2ccc(-c3cn4c(n3)sc3cc(OCCCN5CCOCC5)ccc34)cc2)no1`, in series [1], the pIC50 was 9.10.

In series [1], `CC(C)(C)c1cc(NC(=O)Nc2ccc(-c3cn4c(n3)sc3cc(OCCN5CCCCC5)ccc34)cc2)no1` had a pIC50 of 9.06. The pIC50 values of the last two compounds are within 0.2 log units of each other.

Consider `COc1ccc(F)cc1C(=O)NCc1ccc(-c2nn([C@H](C)C(F)(F)F)c(N)c2C(N)=O)cc1`, for which the pIC50 in [2] was 7.67; in series [3], 8.24. This compound also displayed a bioavailability in series [4] of 85.5%. The compound also showed a half-life in series [5] of 19 h.

In turn, `Cc1nsc(-c2nnc3n2CCN(C(=O)c2ccc(F)cc2)[C@@H]3C)n1` [FEZOLINETANT] gave a pKi in series [6] of 7.66. The compound also had a half-life in [5] of 9.6 h. In addition, in series [7], the Cmax was determined as 1.5 ng/mL. In addition, the Vd in [8] worked out at 189 L.

`N#CCNC(=O)c1ccc(-c2ccnc(Nc3ccc(N4CCOCC4)cc3)n2)cc1` [MOMELOTINIB] returned a Cmax in [9] of 479 ng/mL. Besides, the Vd in series [10] was 984 L. In series [11], the fraction unbound was found to be 0.09.

The compound `CCC[C@H](N[C@H]1CCc2cc(F)cc(F)c2C1)C(=O)Nc1cn(C(C)(C)CNCC(C)(C)C)cn1` [NIROGACESTAT] returned a peak concentration (Cmax) in series [12] of 508 ng/mL. This compound gave an AUC in series [13] of 3370 ng·h/mL. Further, the bioavailability in series [4] came to 19%.

For `CC1(C)CCC(C)(C)c2cc(Cn3cccn3)c(/C=C/c3ccc(C(=O)O)cc3)cc21` [PALOVAROTENE], 10 µM produced 99% inhibition in series [14].

For the compound `C=CC(=O)N1C[C@H](Nc2ncnc3[nH]ccc23)CC[C@@H]1C` [RITLECITINIB], the bioavailability in [4] was found to be 64%.

In turn, `C[C@@]1(C(=O)N[C@@H](CCC(=O)O)C(=O)O)CCCN1C(=O)CN` [TROFINETIDE] (H-Gly-[αMeP]-Glu-OH) had a half-life in [15] of 1.5 h.
